Measured values reported in the supplement of paper PMC11061612.

How the values were obtained:
Assay in all cases: combination Emax (second highest fraction inhibited in the dose matrix, 72 h); higher = more inhibition; extreme values may be limits of the assay
[1] = tested on: SAT (Head and Neck Carcinoma)
Outline: (§1)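 After 24 hours at 37°C and 5% CO2 in 1536-well plates, cells in DMEM/F12 or RPMI plus 10% FBS received two-drug dose matrices for 72 hours. Viability came from CellTiter-Glo 2.0 luminescence and was scaled as inhibition, anchored at 0 by vehicle wells and at 1 by blank wells. Combination Emax is taken as the second-highest inhibition in the matrix, and Bliss excess as the observed combination effect less EA + EB − EA·EB, with EA and EB the single-agent effects.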

[2] = tested on: CPC-N (Small Cell Lung Carcinoma)
Outline: as §1

[3] = tested on: BHT-101 (Thyroid Gland Carcinoma)
Outline: as §1

[4] = tested on: BxPC-3 (Pancreatic Carcinoma)
Outline: as §1

UACC-257 (Melanoma) = tested on: UACC-257 (Melanoma)
Outline: as §1

[5] = tested on: NCI-H3118 (Head and Neck Carcinoma)
Outline: as §1

SK-N-SH (Neuroblastoma) = tested on: SK-N-SH (Neuroblastoma)
Outline: as §1

[6] = tested on: SNU-C2B (Colorectal Carcinoma)
Outline: as §1

[7] = tested on: COR-L88 (Small Cell Lung Carcinoma)
Outline: as §1

[8] = tested on: LCLC-103H (Non-Small Cell Lung Carcinoma)
Outline: as §1

NCI-H226 (Mesothelioma) = tested on: NCI-H226 (Mesothelioma)
Outline: as §1

[9] = tested on: KP-4 (Pancreatic Carcinoma)
Outline: as §1

[10] = tested on: SCC-4 (Oral Cavity Carcinoma)
Outline: as §1

[11] = tested on: LS-1034 (Colorectal Carcinoma)
Outline: as §1

AM-38 (Glioblastoma) = tested on: AM-38 (Glioblastoma)
Outline: as §1

[12] = tested on: OVCAR-3 (Ovarian Carcinoma)
Outline: as §1

[13] = tested on: HT-1080 (Other Solid Carcinomas)
Outline: as §1

[14] = tested on: IA-LM (Non-Small Cell Lung Carcinoma)
Outline: as §1

[15] = tested on: C-33-A (Cervical Carcinoma)
Outline: as §1

[16] = tested on: MOLP-8 (Plasma Cell Myeloma)
Outline: as §1

SMILES	combination Emax [1]	combination Emax [2]	combination Emax [3]	combination Emax [4]	combination Emax (UACC-257 (Melanoma))	combination Emax [5]	combination Emax (SK-N-SH (Neuroblastoma))	combination Emax [6]	combination Emax [7]	combination Emax [8]	combination Emax (NCI-H226 (Mesothelioma))	combination Emax [9]	combination Emax [10]	combination Emax [11]	combination Emax (AM-38 (Glioblastoma))	combination Emax [12]	combination Emax [13]	combination Emax [14]	combination Emax [15]	combination Emax [16]
Cn1cnc2c(F)c(Nc3ccc(Br)cc3Cl)c(C(=O)NOCCO)cc21 [Selumetinib] + CCN(CCO)CCCOc1ccc2c(Nc3cc(CC(=O)Nc4cccc(F)c4)[nH]n3)ncnc2c1 [AZD2811] (first compound max 10 µM, 7x7, partner max 1 µM)	0.604	0.717	0.846	0.407	0.68	0.537	0.289	0.335	0.257	0.376	0.216	0.678	0.415	0.671	0.542	0.182	0.387	0.28	0.324	0.417
COc1cc2ncnc(Nc3ccc(F)c(Cl)c3)c2cc1OCCCN1CCOCC1 [Gefitinib] + CC(C)n1c(=O)n(C)c2cnc3cc(F)c(-c4ccc(OCCCN5CCCCC5)nc4)cc3c21 [AZD1390] (first compound max 10 µM, 7x7, partner max 0.3 µM)	0.69	0.0984	0.255	0.285	0.053	0.518	0.0891	0.246	0.21	0.195	0.0952	0.121	0.275	0.117	0.123	0.0817	0.0949	0.202	0.485	0.413
NC1(C(=O)N[C@@H](CCO)c2ccc(Cl)cc2)CCN(c2ncnc3[nH]ccc23)CC1 [Capivasertib] + CC(=O)c1c(C)c2cnc(Nc3ccc(N4CCNCC4)cn3)nc2n(C2CCCC2)c1=O [Palbociclib] (first compound max 10 µM, 7x7, partner max 10 µM)	0.662	0.382	0.675	0.23	0.276	0.519	0.454	0.424	0.226	0.448	0.3	0.595	0.271	0.499	0.473	0.379	0.101	0.206	0.679	0.655
COc1nnc2ccc(N3CCC(c4ccc(OCCN5CCN(C)C(=O)[C@H]5C)cc4)CC3)nn12 [AZD5153] + CCN(CCO)CCCOc1ccc2c(Nc3cc(CC(=O)Nc4cccc(F)c4)[nH]n3)ncnc2c1 [AZD2811] (first compound max 1 µM, 7x7, partner max 1 µM)	0.775	0.697	0.7	0.491	0.372	0.55	0.532	0.581	0.237	0.511	0.443	0.67	0.444	0.535	0.433	0.602	0.387	0.401	0.476	0.933
COc1cc2c(cc1OCCCCCOc1cc3c(cc1OC)C(=O)N1C=C(C)C[C@H]1C=N3)N=C[C@@H]1CC(C)=CN1C2=O [SG3199] + O=C(c1cc(Cc2n[nH]c(=O)c3ccccc23)ccc1F)N1CCN(C(=O)C2CC2)CC1 [Olaparib] (first compound max 0.001 µM, 7x7, partner max 10 µM)	0.17	0.243	0.193	0.101	0.0273	0.118	0.274	0.249	0.237	0.0713	0.0668	0.0915	0.0768	0.0272	0.306	0.127	0.12	0.139	0.189	0.233
CCN(CCO)CCCOc1ccc2c(Nc3cc(CC(=O)Nc4cccc(F)c4)[nH]n3)ncnc2c1 [AZD2811] + C[C@@H]1COCCN1C2=NC(=NC(=C2)C3(CC3)[S@](=N)(=O)C)C4=C5C=CNC5=NC=C4 [AZD6738] (first compound max 1 µM, 7x7, partner max 10 µM)	0.276	0.961	0.555	0.447	0.16	0.599	0.906	0.655	0.615	0.5	0.233	0.611	0.633	0.64	0.747	0.221	0.336	0.304	0.87	0.791
Cc1cc2ncnn2cc1Nc1ncc2c(n1)n(C1CCOCC1)c(=O)n2C [AZD7648] + CCN(CCO)CCCOc1ccc2c(Nc3cc(CC(=O)Nc4cccc(F)c4)[nH]n3)ncnc2c1 [AZD2811] (first compound max 10 µM, 7x7, partner max 1 µM)	0.376	0.795	0.25	0.25	0.278	0.239	0.625	0.224	0.244	0.377	0.253	0.4	0.307	0.264	0.405	0.116	0.261	0.268	0.368	0.493
Cc1cc2ncnn2cc1Nc1ncc2c(n1)n(C1CCOCC1)c(=O)n2C [AZD7648] + O=C(c1cc(Cc2n[nH]c(=O)c3ccccc23)ccc1F)N1CCN(C(=O)C2CC2)CC1 [Olaparib] (first compound max 10 µM, 7x7, partner max 10 µM)	0.164	0.31	0.383	0.0851	0.0535	0.167	0.444	0.28	0.231	0.299	0.149	0.181	0.259	0.0469	0.616	0.145	0.147	0.158	0.305	0.382
C=CCn1c(=O)c2cnc(Nc3ccc(N4CCN(C)CC4)cc3)nc2n1-c1cccc(C(C)(C)O)n1 [AZD1775] + C[C@@H]1COCCN1C2=NC(=NC(=C2)C3(CC3)[S@](=N)(=O)C)C4=C5C=CNC5=NC=C4 [AZD6738] (first compound max 1 µM, partner max 10 µM)	0.469	0.999	0.771	0.624	0.344	0.855	0.953	0.726	0.822	0.752	0.466		0.763	0.763	0.818	0.74	0.476	0.446	0.978	0.854
CCc1c2c(nc3ccc(O)cc13)-c1cc3c(c(=O)n1C2)COC(=O)[C@]3(O)CC [SN-38] + O=C(c1cc(Cc2n[nH]c(=O)c3ccccc23)ccc1F)N1CCN(C(=O)C2CC2)CC1 [Olaparib] (first compound max 0.3 µM, 7x7, partner max 10 µM)	0.418	0.392		0.59	0.343	0.396	0.959	0.478	0.535	0.54	0.168	0.817	0.847	0.553	0.882	0.687	0.489	0.878	0.747	0.783
CC(=O)c1c(C)c2cnc(Nc3ccc(N4CCNCC4)cn3)nc2n(C2CCCC2)c1=O [Palbociclib] + CN(CC[C@H](CSC1=CC=CC=C1)NC2=C(C=C(C=C2)S(=O)(=O)NC(=O)C3=CC=C(C=C3)N4CCC(CC4)[C@H](C5=CC=CC=C5C6=CC=C(C=C6)Cl)O)S(=O)(=O)C(F)(F)F)CCO [AZD4320] (first compound max 10 µM, 7x7, partner max 1 µM)	0.485		0.598		0.183			0.599							0.872	0.204	0.415			0.542
COc1nnc2ccc(N3CCC(c4ccc(OCCN5CCN(C)C(=O)[C@H]5C)cc4)CC3)nn12 [AZD5153] + CN(CC[C@H](CSC1=CC=CC=C1)NC2=C(C=C(C=C2)S(=O)(=O)NC(=O)C3=CC=C(C=C3)N4CCC(CC4)[C@H](C5=CC=CC=C5C6=CC=C(C=C6)Cl)O)S(=O)(=O)C(F)(F)F)CCO [AZD4320] (first compound max 1 µM, 7x7, partner max 1 µM)	0.804		0.737		0.413			0.55							0.949	0.601	0.618			0.98
C[C@@H](c1ccc2nccn2c1)n1nnc2ncc(-c3cnn(C)c3)nc21 [Savolitinib] + CN(CC[C@H](CSC1=CC=CC=C1)NC2=C(C=C(C=C2)S(=O)(=O)NC(=O)C3=CC=C(C=C3)N4CCC(CC4)[C@H](C5=CC=CC=C5C6=CC=C(C=C6)Cl)O)S(=O)(=O)C(F)(F)F)CCO [AZD4320] (first compound max 1 µM, 7x7, partner max 1 µM)	0.189		0.176		0.411			0.212							0.613	0.131	0.566			0.216
